In experiment [1] the test system is HL-60. The experiment can be described thus: Cytotoxicity against human HL60 cells assessed as growth inhibition at 10 uM after 24 to 48 hrs by MTT assay relative to control. Particulars: read-out: GI. The format is functional. Background: Tetrazolium dyes change colour on reduction, which living cells bring about.
For experiment [2], the system named is HL-60. Nature of the experiment: Cytotoxicity against human HL60 cells assessed as growth inhibition at 30 uM after 24 to 48 hrs by MTT assay relative to control. The format is functional. Conditions: read-out: GI.
In experiment [3] the test system is HL-60. The experiment can be described thus: Cytotoxicity against human HL60 cells assessed as growth inhibition at 100 uM after 24 to 48 hrs by MTT assay relative to control. Conditions: read-out: GI. The format is functional.
Experiment [4] is described as follows: Cytotoxicity against human MIAPaCa2 cells assessed as growth inhibition at 10 uM after 24 to 48 hrs by MTT assay relative to control. The format is functional. Particulars: MIA PaCa-2, read-out: GI.
Experiment [5] can be described thus: Cytotoxicity against human MIAPaCa2 cells assessed as growth inhibition at 30 uM after 24 to 48 hrs by MTT assay relative to control. Particulars: MIA PaCa-2, read-out: GI. The format is functional.
Experiment [6] in a line: Cytotoxicity against human MIAPaCa2 cells assessed as growth inhibition at 100 uM after 24 to 48 hrs by MTT assay relative to control. Particulars: MIA PaCa-2, read-out: GI. The format is functional.
Experiment [7] has as its system HCT-116. The experiment can be described thus: Cytotoxicity against human HCT116 cells assessed as growth inhibition at 10 uM after 24 to 48 hrs by MTT assay relative to control. The experiment is classed as functional. Conditions: read-out: GI.
Experiment [8] deals with HCT-116. The experiment can be described thus: Cytotoxicity against human HCT116 cells assessed as growth inhibition at 30 uM after 24 to 48 hrs by MTT assay relative to control. Conditions: read-out: GI. The experiment is classed as functional.
Experiment [9] has as its system HCT-116. The experiment can be described thus: Cytotoxicity against human HCT116 cells assessed as growth inhibition at 100 uM after 24 to 48 hrs by MTT assay relative to control. The experiment is classed as functional. Conditions: read-out: GI.
Experiment [10] relates to HepG2. The experiment can be described thus: Cytotoxicity against human HepG2 cells assessed as growth inhibition at 10 uM after 24 to 48 hrs by MTT assay relative to control. Conditions: read-out: GI. The format is functional.
Experiment [11] has as its system HepG2. Nature of the experiment: Cytotoxicity against human HepG2 cells assessed as growth inhibition at 30 uM after 24 to 48 hrs by MTT assay relative to control. The experiment is classed as functional. Conditions: read-out: GI.
For experiment [12], the system named is HepG2. The experiment can be described thus: Cytotoxicity against human HepG2 cells assessed as growth inhibition at 100 uM after 24 to 48 hrs by MTT assay relative to control. The experiment is classed as functional. Conditions: read-out: GI.
Experiment [13] relates to PC-3. Nature of the experiment: Cytotoxicity against human PC3 cells assessed as growth inhibition at 10 uM after 24 to 48 hrs by MTT assay relative to control. The experiment is classed as functional. Particulars: read-out: GI.
Experiment [14] relates to PC-3. Nature of the experiment: Cytotoxicity against human PC3 cells assessed as growth inhibition at 30 uM after 24 to 48 hrs by MTT assay relative to control. The experiment is classed as functional. Particulars: read-out: GI.
The subject of experiment [15] is PC-3. Nature of the experiment: Cytotoxicity against human PC3 cells assessed as growth inhibition at 100 uM after 24 to 48 hrs by MTT assay relative to control. The experiment is classed as functional. Conditions: read-out: GI.
The subject of experiment [16] is HL-60. Nature of the experiment: cells. Conditions: Homo sapiens, HL-60, 48 h.
Description: Cytotoxicity against human HL60 cells assessed as inhibition of cell proliferation after 48 hrs by MTT assay
The nature of a further experiment: cells. Particulars: Homo sapiens, MIA PaCa-2, 48 h.
Experiment [17] relates to HCT-116. The experiment can be described thus: cells. Particulars: Homo sapiens, HCT-116, 48 h.
Description: Cytotoxicity against human HCT116 cells assessed as inhibition of cell proliferation after 48 hrs by MTT assay
For experiment [18], the system named is HepG2. The experiment can be described thus: cells. Conditions: Homo sapiens, HepG2, 48 h.
Description: Cytotoxicity against human HepG2 cells assessed as inhibition of cell proliferation after 48 hrs by MTT assay
Experiment [19] deals with PC-3. The experiment can be described thus: cells. Conditions: Homo sapiens, PC-3, 48 h.
Description: Cytotoxicity against human PC3 cells assessed as inhibition of cell proliferation after 48 hrs by MTT assay

This passage reports inhibition of growth and IC50 results from ChEMBL document CHEMBL3593172, “4-(N-Phenyl-N'-substituted benzenesulfonyl)-6-(4-hydroxyphenyl)quinolines as inhibitors of mammalian target of rapamycin” (Bioorg Med Chem, 2015).

The term IC50 denotes the concentration at which inhibition is half-maximal. Lower therefore signals greater potency. For the molecule `O=S(=O)(c1ccc2c(c1)OCCO2)N(c1ccccc1)c1ccnc2ccc(-c3ccc(O)cc3)cc12`, the inhibition of growth at 10 µM in the experiment with HL-60 [1] is 87%; in experiment [4] it was 79%; in the experiment on HCT-116 [7], 17%; in the experiment with HepG2 [10], 46%; with PC-3 [13] it was 27%. In addition, the inhibition of growth at 30 µM stood at 90% in the experiment on HL-60 [2]; 84% in [5]; 26% with HCT-116 [8]; 87% in the experiment on HepG2 [11]; 38% with PC-3 [14]. Moreover, the inhibition of growth at 100 µM with HL-60 [3] was 90%; in experiment [6] it was 86%; in the experiment with HCT-116 [9], 68%; in the experiment with HepG2 [12] it was 88%; with PC-3 [15] it was 62%. The IC50 with HL-60 [16] was below 10 µM; in the experiment “cells” it was below 10 µM; in the experiment with HCT-116 [17] it was 70 µM; in the experiment on HepG2 [18], 12 µM; in the experiment on PC-3 [19] it was 65 µM.

For `O=S(=O)(c1ccc(F)cc1)N(c1ccccc1)c1ccnc2ccc(-c3ccc(O)cc3)cc12`, the inhibition of growth at 10 µM in the experiment on HL-60 [1] was determined as 2%; in [4], 9%; with HCT-116 [7], 20%; in the experiment with HepG2 [10], 1%; in the experiment with PC-3 [13], 16%. For the same molecule, the inhibition of growth at 30 µM worked out at 51% with HL-60 [2]; 30% in [5]; 57% with HCT-116 [8]; 10% in the experiment on HepG2 [11]; 43% with PC-3 [14]. Also, the inhibition of growth at 100 µM turned out to be 79% in the experiment on HL-60 [3]; 70% in experiment [6]; 92% in the experiment with HCT-116 [9]; 60% in the experiment on HepG2 [12]; 87% with PC-3 [15]. Moreover, the IC50 amounted to 28 µM in the experiment with HL-60 [16]; 65 µM in the experiment “cells”; 27 µM with HCT-116 [17]; 85 µM in the experiment on HepG2 [18]; 42 µM in the experiment with PC-3 [19].

Take `CC(C)(C)c1ccc(S(=O)(=O)N(c2ccccc2)c2ccnc3ccc(-c4ccc(O)cc4)cc23)cc1`: the inhibition of growth at 10 µM is 76% with HL-60 [1]; 79% in experiment [4]; 20% with HCT-116 [7]; 14% in the experiment with HepG2 [10]; 21% in the experiment on PC-3 [13]. Moreover, the inhibition of growth at 30 µM was found to be 89% in the experiment on HL-60 [2]; 85% in experiment [5]; 35% in the experiment on HCT-116 [8]; 89% with HepG2 [11]; 45% with PC-3 [14]. The inhibition of growth at 100 µM was 93% with HL-60 [3]; 90% in [6]; 83% in the experiment on HCT-116 [9]; 98% in the experiment with HepG2 [12]; 70% in the experiment with PC-3 [15]. Also, the concentration for half-maximal inhibition (IC50) is below 10 µM with HL-60 [16]; below 10 µM in the experiment “cells”; 31 µM with HCT-116 [17]; 18 µM in the experiment on HepG2 [18]; 44 µM in the experiment on PC-3 [19].

Take `N#Cc1ccc(S(=O)(=O)N(c2ccccc2)c2ccnc3ccc(-c4ccc(O)cc4)cc23)cc1`: the inhibition of growth at 10 µM in the experiment on HL-60 [1] turned out to be 12%; in experiment [4], 16%; in the experiment with HCT-116 [7], 5%; in the experiment with HepG2 [10] it was 1%; with PC-3 [13], 9%. Further, the inhibition of growth at 30 µM in the experiment on HL-60 [2] stood at 30%; in experiment [5], 21%; in the experiment with HCT-116 [8], 21%; in the experiment on HepG2 [11] it was 1%; in the experiment with PC-3 [14] it was 10%. In addition, the inhibition of growth at 100 µM worked out at 78% in the experiment with HL-60 [3]; 64% in [6]; 36% in the experiment on HCT-116 [9]; 34% with HepG2 [12]; 19% in the experiment on PC-3 [15]. Also, the IC50 in the experiment with HL-60 [16] is 58 µM; in “cells”, 78 µM; in the experiment on HCT-116 [17] it was above 100 µM; with HepG2 [18], above 100 µM; in the experiment on PC-3 [19], above 100 µM.

With `O=C(c1cccnc1Cl)N(c1ccccc1)c1ccnc2ccc(-c3ccc(O)cc3)cc12`, the inhibition of growth at 10 µM worked out at 92% in the experiment on HL-60 [1]; 69% in experiment [4]; 29% in the experiment with HCT-116 [7]; 19% with HepG2 [10]; 47% in the experiment with PC-3 [13]. Also, the inhibition of growth at 30 µM was 94% with HL-60 [2]; 89% in experiment [5]; 88% in the experiment with HCT-116 [8]; 87% in the experiment on HepG2 [11]; 90% with PC-3 [14]. For the same molecule, the inhibition of growth at 100 µM in the experiment on HL-60 [3] came out at 95%; in experiment [6], 89%; in the experiment with HCT-116 [9], 89%; in the experiment with HepG2 [12], 88%; with PC-3 [15], 90%. The IC50 is below 10 µM in the experiment on HL-60 [16]; below 10 µM in “cells”; 16 µM in the experiment with HCT-116 [17]; 19 µM with HepG2 [18]; 11 µM in the experiment on PC-3 [19].

Take `O=S(=O)(c1ccc(F)cc1F)N(c1ccccc1)c1ccnc2ccc(-c3ccc(O)cc3)cc12`: the inhibition of growth at 10 µM with HL-60 [1] was 87%; in [4] it was 80%; in the experiment on HCT-116 [7], 2%; with HepG2 [10], 87%; in the experiment on PC-3 [13], 26%. Moreover, the inhibition of growth at 30 µM is 88% in the experiment with HL-60 [2]; 84% in [5]; 20% in the experiment on HCT-116 [8]; 89% with HepG2 [11]; 61% with PC-3 [14]. Besides, the inhibition of growth at 100 µM in the experiment on HL-60 [3] amounted to 89%; in experiment [6], 87%; with HCT-116 [9], 58%; in the experiment on HepG2 [12], 90%; in the experiment on PC-3 [15] it was 73%. Further, the IC50 is below 10 µM in the experiment on HL-60 [16]; below 10 µM in “cells”; 80 µM with HCT-116 [17]; below 10 µM in the experiment with HepG2 [18]; 25 µM in the experiment on PC-3 [19].

With `Cc1c(C)c(C)c(S(=O)(=O)N(c2ccccc2)c2ccnc3ccc(-c4ccc(O)cc4)cc23)c(C)c1C`, the inhibition of growth at 10 µM with HL-60 [1] amounted to 5%; in experiment [4], 16%; with HCT-116 [7], 14%; with HepG2 [10], 1%; in the experiment on PC-3 [13], 12%. Also, the inhibition of growth at 30 µM with HL-60 [2] was 8%; in [5] it was 17%; in the experiment with HCT-116 [8] it was 15%; in the experiment with HepG2 [11] it was 2%; with PC-3 [14], 14%. Further, the inhibition of growth at 100 µM with HL-60 [3] was determined as 15%; in experiment [6], 22%; in the experiment on HCT-116 [9], 24%; in the experiment on HepG2 [12], 10%; with PC-3 [15], 15%. The IC50 with HL-60 [16], in the experiment “cells”, in the experiment with HCT-116 [17], in the experiment on HepG2 [18] and with PC-3 [19] was above 100 µM in each case.
